Molecules are shown by their SMILES. Converted amounts (≈) assume the structure as drawn. Read-outs that look alike come from different tables or passages of the source. Bounds are passed on as bounds.

Assay type in all cases: cell-based
Test [1] relates to S. aureus ATCC 49951 (NB01006). Description: MIC by broth microdilution, S. aureus NB01006. The conditions noted are these: Staphylococcus aureus, ATCC49951, CAMHB, 35° C., 20 hours, read-out: Antibacterial activity (MIC) NB01006. Here is the method:
(§1) Bacterial isolates were cultivated from −80° C. frozen stocks by overnight passages at 35° C. in ambient air on Mueller-Hinton agar plates (MHA, Becton Dickinson, Franklin Lakes, NB) with the exception of S. pneumoniae which was grown overnight at 35° C. in the presence of 5% CO2 on blood agar plates (tryptic soy agar with 5% sheep blood (Thermo Scientific, Waltham, Mass.) . The following quality control and wild type strains were obtained from the American Type Culture Collection (ATCC; Rockville, Md.) and are coded in the Novartis strain collection as indicated: E. coli ATCC 25922 (NB27001), E. faecalis ATCC 29212 (NB04001), S. aureus ATCC 49951 (NB01006) and S. pneumoniae ATCC […] (NB07001). […] P. aeruginosa NB52019, obtained from Queen's University (Kingston, Ontario, Canada), is the wild-type PAO1 strain.
(§2) Minimal Inhibitory Concentrations (MIC) were determined by the broth microdilution method in accordance with Clinical and Laboratories Institute (CLSI) guidelines. In brief, fresh bacterial overnight cultures were re-suspended in sterile saline, adjusted to a 0.5 McFarland turbidity standard and then diluted to yield a final inoculum of approximately 5×10^5 colony-forming units (CFU)/mL. All bacterial suspensions were prepared in cation adjusted Mueller-Hinton Broth (CAMHB; Becton Dickinson, Franklin Lakes, N.J.;) with the exception of S. pneumoniae which was prepared in CAMHB supplemented with 5% lysed horse blood (Hardy Diagnostics, Santa Maria, Calif.). Two-fold serial dilutions of compounds were prepared in 100% dimethyl sulfoxide (DMSO) at 100-fold the highest final assay concentration; the resulting dilution series of compounds were diluted 1:10 with sterile water. Ten μL of the drug dilution series in 10% DMSO was transferred to microtiter wells and 90 μL of bacterial suspension was inoculated into the wells. All inoculated microdilution trays were incubated in ambient air at 35° C. for 20 hours. Following incubation, assay plates were read in a microtiter plate reader at 600 nm and visually inspected to confirm the MIC endpoint well with the OD value. The lowest concentration of the compound that prevented visible growth was recorded as the MIC (in μg/mL).
In general terms: In broth dilution the organism is exposed to a series of concentrations in liquid medium.

Test [2] deals with S. aureus NB01006-AVR005, gyrA (S84L), grlA (580F) and grlB (E471K). The test is described as follows: microbe, parasite or virus in culture. The conditions noted are these: Staphylococcus aureus, 20 h, read-out: Antibacterial activity (MIC) NB01006-AVR005. Here is the method:
as §1, §2

Test [3] has as its system S. aureus NB01080 fluoroquinolone-resistant clinical isolate. Description: MIC by broth microdilution, S. aureus NB01080. The conditions noted are these: Staphylococcus aureus, CAMHB, 35° C., 20 hours, read-out: Antibacterial activity (MIC) NB01080. As to the method:
as §1, §2

The test system of test [4] is E. faecalis ATCC 29212 (NB04001). The test is described as follows: MIC by broth microdilution, E. faecalis NB04001. To be noted: Enterococcus faecalis, ATCC29212, CAMHB, 35° C., 20 hours, read-out: Antibacterial activity (MIC) NB04001. As to the method:
as §1, §2

Test [5] has as its system S. pneumoniae ATCC 25922 (NB07001). Description: MIC by broth microdilution, S. pneumoniae NB07001. To be noted: Streptococcus pneumoniae, read-out: Antibacterial activity (MIC) NB07001. As to the method:
as §1, §2

In test [6] the test system is E. coli ATCC 25922 (NB27001). Description: MIC by broth microdilution, E. coli NB27001. To be noted: Escherichia coli, ATCC25922, CAMHB, 35° C., 20 hours, read-out: Antibacterial activity (MIC) NB27001. As to the method: as §1, §2
The test system of test [7] is P. aeruginosa NB52019, wild-type PAO1 strain. The test is described as follows: MIC by broth microdilution, P. aeruginosa NB52019. To be noted: Pseudomonas aeruginosa, CAMHB, 35° C., 20 hours, read-out: Antibacterial activity (MIC) NB52019. As to the method:
as §1, §2

[8] abbreviates: ATCC25922, S. pneumoniae, CAMHB supplemented with 5% lysed horse blood, 35° C., 20 hours.

As to `C[C@H]1COc2c(N3CCC(CNC4CC4)C3)c(F)cc3cc(C(=O)O)c(=O)n1c23` (mixture of isomers) [Example 1.11, (3S)-10-(3-((cyclopropylamino)methyl)pyrrolidin-1-yl)-9-fluoro-3-methyl-5-oxo-2,3-dihydro-5H-[1,4]oxazino[2,3,4-ij]quinoline-6-carboxylic acid], the MIC is 1 to 32 µg/mL in test [1]; greater than 32 µg/mL in test [2]; 1 to 32 µg/mL in test [3]; 1 to 32 µg/mL in test [4]; less than 1 µg/mL in test [5] (ATCC25922, 20 h); 1 to 32 µg/mL in test [6]. In test [7], the MIC was greater than 32 µg/mL.

For `C[C@H]1COc2c(N3CC4C(N)C4C3)c(F)cc3cc(C(=O)O)c(=O)n1c23` (mixture of isomers) [Example 1.38, (3S)-10-(6-amino-3-azabicyclo[3.1.0]hexan-3-yl)-9-fluoro-3-methyl-5-oxo-2,3-dihydro-5H-[1,4]oxazino[2,3,4-ij]quinoline-6-carboxylic acid], the MIC in test [1] was less than 1 µg/mL; in test [2], greater than 32 µg/mL; in test [3], 1 to 32 µg/mL; in test [4] it was 1 to 32 µg/mL; in test [5] (ATCC25922, 20 h), 1 to 32 µg/mL; in test [6], less than 1 µg/mL. Further, the MIC in test [7] was in the range of 1 to 32 µg/mL.

For `C[C@H]1COc2c(N3CCC(C4CC4N)CC3)c(F)cc3cc(C(=O)O)c(=O)n1c23` (mixture of isomers) [Example 1.64, (3S)-10-(4-(2-aminocyclopropyl)piperidin-1-yl)-9-fluoro-3-methyl-5-oxo-2,3-dihydro-5H-[1,4]oxazino[2,3,4-ij]quinoline-6-carboxylic acid], the MIC in test [1] is 1 to 32 µg/mL; in test [2], greater than 32 µg/mL; in test [3], greater than 32 µg/mL; in test [4], 1 to 32 µg/mL; in test [5] (ATCC25922, 20 h), 1 to 32 µg/mL; in test [6], greater than 32 µg/mL. Also, the MIC in test [7] was greater than 32 µg/mL.

In the case of `C[C@H]1COc2c(N3CCC4NCCCC4C3)c(F)cc3cc(C(=O)O)c(=O)n1c23` (mixture of isomers) [Example 1.65, (3S)-9-fluoro-3-methyl-10-(octahydro-1,6-naphthyridin-6(2H)-yl)-5-oxo-2,3-dihydro-5H-[1,4]oxazino[2,3,4-ij]quinoline-6-carboxylic acid], the MIC in test [1] is 1 to 32 µg/mL; in test [2], greater than 32 µg/mL; in test [3], greater than 32 µg/mL; in test [4], greater than 32 µg/mL; in test [5] (ATCC25922, 20 h) it was 1 to 32 µg/mL; in test [6], 1 to 32 µg/mL. Also, in test [7], the MIC was greater than 32 µg/mL.

As for `O=C(O)c1cn(C2CC2)c2cc(N3CCNCC3)c(F)cc2c1=O` [CIP, Ciprofloxacin, reference compound], the MIC in test [1] was less than 1 µg/mL; in test [4], less than 1 µg/mL; in test [5] (ATCC25922, 20 h), less than 1 µg/mL; in test [6], less than 1 µg/mL; in test [7], less than 1 µg/mL.

Consider `COC(=O)c1cc2cc(F)c(N3CC[C@@H](C4(N)CC4)C3)c3c2n(c1=O)[C@@H](C)CO3` [Example 1.7, Methyl (S)-10-((R)-3-(1-aminocyclopropyl)pyrrolidin-1-yl)-9-fluoro-3-methyl-5-oxo-2,3-dihydro-5H-[1,4]oxazino[2,3,4-ij]quinoline-6-carboxylate], for which the MIC in test [1] was less than 1 µg/mL; in test [2], 1 to 32 µg/mL (≈ 2.49 to 79.7 µM); in test [3], less than 1 µg/mL; in test [4], less than 1 µg/mL; in test [5] (ATCC25922, 20 h), less than 1 µg/mL; in test [6], greater than 32 µg/mL.

Consider `C[C@H]1COc2c(N3CCC(F)(CN)C3)c(F)cc3c(CN)cc(=O)n1c23.O=C(O)C(F)(F)F` (stereo partly drawn) [Example 7.1, (3S)-7-(aminomethyl)-10-(3-(aminomethyl)-3-fluoropyrrolidin-1-yl)-9-fluoro-3-methyl-2,3-dihydro-5H-[1,4]oxazino[2,3,4-ij]quinolin-5-one trifluoroacetate salt], for which the MIC was 1 to 32 µg/mL in test [2]; 1 to 32 µg/mL in test [3]; less than 1 µg/mL in test [5] (setting [8]); 1 to 32 µg/mL in test [6]; 1 to 32 µg/mL in test [7].

For the compound `C[C@H]1COc2c(N3CC[C@H](N)C3)c(F)cc3c(CN)cc(=O)n1c23` [Example 7.2, (S)-7-(aminomethyl)-10-((S)-3-aminopyrrolidin-1-yl)-9-fluoro-3-methyl-2,3-dihydro-5H-[1,4]oxazino[2,3,4-ij]quinolin-5-one], the MIC in test [2] was 1 to 32 µg/mL (≈ 3.01 to 96.3 µM); in test [3] it was greater than 32 µg/mL; in test [5] (ATCC25922, 20 h), 1 to 32 µg/mL (≈ 3.01 to 96.3 µM); in test [6] it was 1 to 32 µg/mL (≈ 3.01 to 96.3 µM); in test [7], 1 to 32 µg/mL (≈ 3.01 to 96.3 µM).

On to `C[C@@H]1COc2c(N3CCC(F)(CN)C3)c(F)cc3c(CN)cc(=O)n1c23` (stereo partly drawn) [Example 7.3, (3R)-7-(aminomethyl)-10-(3-(aminomethyl)-3-fluoropyrrolidin-1-yl)-9-fluoro-3-methyl-2,3-dihydro-5H-[1,4]oxazino[2,3,4-ij]quinolin-5-one], for which the MIC in test [2] was greater than 32 µg/mL; in test [3], greater than 32 µg/mL; in test [5] (ATCC25922, 20 h), greater than 32 µg/mL; in test [6], greater than 32 µg/mL; in test [7], greater than 32 µg/mL.

Consider `C[C@@H]1COc2c(N3CCNCC3)c(F)cc3c(CN)cc(=O)n1c23` [Example 7.4, (R)-7-(aminomethyl)-9-fluoro-3-methyl-10-(piperazin-1-yl)-2,3-dihydro-5H-[1,4]oxazino[2,3,4-ij]quinolin-5-one], for which the MIC in test [2], in test [3], in test [5] (setting [8]), in test [6] and in test [7] was greater than 32 µg/mL each time.

For the compound `NCc1cc(=O)n2c3c(c(N4CCC(F)(CN)C4)c(F)cc13)OCC2` (stereo not shown) [Example 7.5, 7-(aminomethyl)-10-(3-(aminomethyl)-3-fluoropyrrolidin-1-yl)-9-fluoro-2,3-dihydro-5H-[1,4]oxazino[2,3,4-ij]quinolin-5-one], the MIC in test [2] is greater than 32 µg/mL; in test [3], greater than 32 µg/mL; in test [5] (ATCC25922, 20 h) it was greater than 32 µg/mL; in test [6], greater than 32 µg/mL; in test [7], greater than 32 µg/mL.

As for `N#Cc1cc(=O)n2c3c(c(N4CCC(F)(CN)C4)c(F)cc13)OCC2` (stereo not shown) [Example 7.6, 10-(3-(aminomethyl)-3-fluoropyrrolidin-1-yl)-9-fluoro-5-oxo-2,3-dihydro-5H-[1,4]oxazino[2,3,4-ij]quinoline-7-carbonitrile], the MIC in test [2] was greater than 32 µg/mL; in test [3], 1 to 32 µg/mL (≈ 2.89 to 92.4 µM); in test [5] (ATCC25922, 20 h) it was greater than 32 µg/mL; in test [6] it was greater than 32 µg/mL; in test [7] it was greater than 32 µg/mL.

As to `NCc1cc(=O)n2c3c(c(N4CCNCC4)c(F)cc13)OCC2` [Example 7.7, 7-(aminomethyl)-9-fluoro-10-(piperazin-1-yl)-2,3-dihydro-5H-[1,4]oxazino[2,3,4-ij]quinolin-5-one], the MIC in test [2], in test [3], in test [5] (setting [8]), in test [6] and in test [7] was greater than 32 µg/mL each time.

As to `N#Cc1cc(=O)n2c3c(c(N4CCNCC4)c(F)cc13)OCC2` [Example 7.8, 9-fluoro-5-oxo-10-(piperazin-1-yl)-2,3-dihydro-5H-[1,4]oxazino[2,3,4-ij]quinoline-7-carbonitrile], the MIC in test [2], in test [3], in test [5] (setting [8]), in test [6] and in test [7] was greater than 32 µg/mL throughout.

Values taken from patent US20180318311A1, “TRICYCLIC 2-QUINOLINONES AS ANTIBACTERIALS” (priority 2017, published 2018).
